ChEMBL document CHEMBL3813649, “The influence of halogen substituents on the biological properties of sulfur-containing flavonoids” (2016)
≈ marks a conversion by molar mass, not a printed value.

Tests used:
Assay type in all cases: functional
Escherichia coli [1] = experiment: Bactericidal activity against Escherichia coli ATCC 25922 after 18 hrs by microbroth dilution assay; details: ATCC 25922, 18 h
Escherichia coli [2] = experiment: Antibacterial activity against Escherichia coli ATCC 25922 after 18 hrs by microbroth dilution assay
Staphylococcus aureus [3] = experiment: Bactericidal activity against Staphylococcus aureus ATCC 25923 after 18 hrs by microbroth dilution assay; details: ATCC 25923, 18 h
Staphylococcus aureus [4] = experiment: Antibacterial activity against Staphylococcus aureus ATCC 25923 after 18 hrs by microbroth dilution assay
[5] = Escherichia coli, ATCC 25922, 18 h, read-out: MIC
[6] = Staphylococcus aureus, ATCC 25923, 18 h, read-out: MIC

SMILES	MIC (Escherichia coli [2]; [5])	MIC (Staphylococcus aureus [4]; [6])	MIC (Escherichia coli [2])	MIC (Staphylococcus aureus [4])	MBC (Escherichia coli [1])	MBC (Staphylococcus aureus [3])
CCN(CC)[c+]1sc2c(s1)C(c1ccc(Cl)cc1)Oc1ccc(F)cc1-2.F[B-](F)(F)F (stereo not drawn)	15.6 µg/mL	3.9 µg/mL			15.6 µg/mL	7.81 µg/mL
CCN(CC)[c+]1sc2c(s1)C(c1ccc(I)cc1)Oc1ccc(F)cc1-2.F[B-](F)(F)F (stereo not drawn)	3.9 µg/mL	1.95 µg/mL			7.81 µg/mL	0.97 µg/mL
CCN(CC)[c+]1sc2c(s1)C(c1ccc(F)cc1)Oc1ccc(F)cc1-2.F[B-](F)(F)F (stereo not drawn)	15.6 µg/mL	7.81 µg/mL			125 µg/mL	3.9 µg/mL
CCN(CC)[c+]1sc2c(s1)C(c1ccc(I)cc1)Oc1ccc(Cl)cc1-2.F[B-](F)(F)F (stereo not drawn)	1.95 µg/mL	0.24 µg/mL			0.97 µg/mL	0.48 µg/mL
CCN(CC)[c+]1sc2c(s1)C(c1ccc(Cl)cc1)Oc1ccc(Cl)cc1-2.F[B-](F)(F)F (stereo not drawn)	3.9 µg/mL	0.24 µg/mL			3.9 µg/mL	0.48 µg/mL
CCN(CC)[c+]1sc2c(s1)C(c1ccc(F)cc1)Oc1ccc(Cl)cc1-2.F[B-](F)(F)F (stereo not drawn)	15.6 µg/mL	1.95 µg/mL			15.6 µg/mL	3.9 µg/mL
CC1(C)S[C@@H]2[C@H](NC(=O)[C@H](N)c3ccccc3)C(=O)N2[C@H]1C(=O)O [AMPICILLIN]	7.81 µg/mL (≈ 22.4 µM)	7.81 µg/mL (≈ 22.4 µM)				
C[S+](C)[O-] [DIMETHYL SULFOXIDE]			125 uL/ml	250 uL/ml		
NC[C@H]1O[C@H](O[C@H]2[C@H](O)[C@@H](O[C@H]3O[C@H](CO)[C@@H](O)[C@H](N)[C@H]3O)[C@H](N)C[C@@H]2N)[C@H](O)[C@@H](O)[C@@H]1O [KANAMYCIN]	7.81 µg/mL (≈ 16.1 µM)	1.95 µg/mL (≈ 4.02 µM)			7.81 µg/mL (≈ 16.1 µM)	1.95 µg/mL (≈ 4.02 µM)

Further lines, with some results ahead:

MIC (Escherichia coli [2]; [5])	MIC (Staphylococcus aureus [4]; [6])	MIC (Escherichia coli [2])	MIC (Staphylococcus aureus [4])	SMILES	MBC (Escherichia coli [1])	MBC (Staphylococcus aureus [3])
125 µg/mL	3.9 µg/mL			CCN(CC)[c+]1sc2c(s1)C(c1ccc(Cl)cc1)Oc1ccccc1-2.F[B-](F)(F)F (stereo not drawn)	125 µg/mL	7.81 µg/mL
62.5 µg/mL	1.95 µg/mL			CCN(CC)[c+]1sc2c(s1)C(c1ccc(Br)cc1)Oc1ccccc1-2.F[B-](F)(F)F (stereo not drawn)	125 µg/mL	1.95 µg/mL
62.5 µg/mL	62.5 µg/mL			CCN(CC)[c+]1sc2c(s1)C(c1ccccc1)Oc1ccccc1-2.F[B-](F)(F)F (stereo not drawn)	250 µg/mL	250 µg/mL
3.9 µg/mL	0.24 µg/mL			CCN(CC)[c+]1sc2c(s1)C(c1ccc(Br)cc1)Oc1ccc(Cl)cc1-2.F[B-](F)(F)F (stereo not drawn)	1.95 µg/mL	3.9 µg/mL
62.5 µg/mL	7.81 µg/mL			CCN(CC)[c+]1sc2c(s1)C(c1ccccc1)Oc1ccc(F)cc1-2.F[B-](F)(F)F (stereo not drawn)	125 µg/mL	15.6 µg/mL
31.2 µg/mL	0.97 µg/mL			CCN(CC)[c+]1sc2c(s1)C(c1ccc(I)cc1)Oc1ccccc1-2.F[B-](F)(F)F (stereo not drawn)	62.5 µg/mL	1.95 µg/mL
7.81 µg/mL	1.95 µg/mL			CCN(CC)[c+]1sc2c(s1)C(c1ccc(Br)cc1)Oc1ccc(F)cc1-2.F[B-](F)(F)F (stereo not drawn)	15.6 µg/mL	7.81 µg/mL
125 µg/mL	7.81 µg/mL			CCN(CC)[c+]1sc2c(s1)C(c1ccc(F)cc1)Oc1ccccc1-2.F[B-](F)(F)F (stereo not drawn)	125 µg/mL	7.81 µg/mL
62.5 µg/mL	3.9 µg/mL			CCN(CC)[c+]1sc2c(s1)C(c1ccccc1)Oc1ccc(Cl)cc1-2.F[B-](F)(F)F (stereo not drawn)	125 µg/mL	3.9 µg/mL
